Source: patent US9951226B2, “Compound based on cyanine scaffold for diagnosis sepsis by selectively detect glutathione” (EWHA UNIVERSITY—INDUSTRY COLLABORATION FOUNDATION, priority 2014, dated 2018)

Assays:
HeLa cells [1] = test: Detection of intracellular biothiol in HeLa cells, confocal laser scanning microscope; assay type: cell-based, human; details: 10 μM compound
Description: HeLa cells (human adenocarcinoma cells, Korea Cell Line Bank) were cultured in RPMI 1640 (Roswell Park Memorial Institute) supplemented with 10% heat-inactivated fetal bovine serum (FBS), 100 U/mL penicillin, and 100 U/mL streptomycin in a 37° C. 5% CO2 incubator. The cells were either treated or not treated with 1 mM of N-methylmaleimide (NMM) known as a thiol blocker for 20 minutes. 100 μM of each amino acid containing thiol group (R—SH) such as cysteine, homocysteine, and glutathione was added thereto. Then, the cells were seeded in 35-mm glass bottomed dishes at the density of 3×10^5 cells/dish in 1640 medium. 24 hours later, 10 μM of the compound prepared in Example 1 was added thereto, followed by culture at 37° C. for 20 minutes. The cells were washed with DPBS (Dulbecco's Phosphate Buffered Saline) twice to eliminate the remaining compound, followed by imaging with confocal laser scanning microscope (Fluoview 1200, Olympus, Japan). At this time, the emitting filter with the excitation wavelength of 635 nm and the band-path (BP) of 655˜755 nm was used.

[2] = Glutathione selectivity: absorption/fluorescence spectrum with various amino acids in HEPES buffer; assay type: biochemical; details: 10 μM compound
Description: 10 μM of the compound prepared in Example 2 was treated to HEPES (4-(2-hydroxyethyl)piperazine-1-ethanesulfonic acid) buffer (10 mM, pH=7.4) containing 10% DMSO and 100 μM of each glutathione, cysteine, homocysteine, dithiothreitol, phenylalanine, histidine, glutamine, lysine, glutamate, glycine, serine, alanine, arginine, methionine, and tyrosine, followed by observation of fluorescence spectrum at 25° C. by using RF-5310/PC fluorescence spectrometer (Shimada, 1 cm quartz cell).
An experiment was performed by the same manner as described in Experimental Example 3 except that the fragment 1 or the fragment 2 was used instead of the compound prepared in Example 2. […] To disclose the reason in relation to the above, the 3-dimensional structure of each of the compound of Example 1, the compound of Example 2, and the fragment 1 or the fragment 2, was investigated along with band-gap.
10 μM of the compound prepared in Example 3 and 100 μM of each endogenous amino acid (alanine, arginine, cysteine, glutamate, glycine, glutathione, homocysteine, histidine, lysine, methionine, serine, and tyrosine) were added to HEPES (4-(2-hydroxyethyl)piperazine-1-ethanesulfonic acid) buffer (10 mM, pH=7.4) containing 10% dimethylsulfoxide (DMSO), followed by observation of absorption spectrum presented through UV-vis sepctra (Scinco 3000 spectrophotometer, 1 cm quartz cell) at 25° C.
The following experiment was performed by the same manner as described in Experimental Example <15-1> except that fluorescence spectrum was observed by using RF-5310/PC fluorescence spectrometer (Shimada, 1 cm quartz cell) instead of observing absorption spectrum via UV-vis sepctra (Scinco 3000 spectrophotometer, 1 cm quartz cell) (λex=730 nm, λem=736 nm, slit:10/10 nm).

[3] = Absorption and fluorescence spectrum over the time after reaction with glutathione; assay type: biochemical; details: 10 μM compound, 100 μM glutathione, HEPES pH 7.4, 10% DMSO
Description: 10 μM of the compound prepared in Example 2 and 100 μM of glutathione were added to HEPES (4-(2-hydroxyethyl)piperazine-1-ethanesulfonic acid) buffer (10 mM, pH=7.4) containing 10% dimethylsulfoxide (DMSO), followed by observation of absorption spectrum at 25° C. using UV-vis sepctra (Scinco 3000 spectrophotometer, 1 cm quartz cell) over the time. The results are shown in FIG. 8 (spectrum was photographed every 0.5 minute).
The following experiment was performed by the same manner as described in Experimental Example <5-1> except that fluorescence spectrum was observed by using RF-5310/PC fluorescence spectrometer (Shimada, 1 cm quartz cell) instead of observing absorption spectrum via UV-vis sepctra (Scinco 3000 spectrophotometer, 1 cm quartz cell) (λex=730 nm, λem=736 nm, slit:10/10 nm). The results are shown in FIG. 9 (spectrum was photographed every 0.5 minute).

HeLa cells [4] = test: Changes of glutathione concentration in the presence of an oxidant (H2O2), HeLa cells; assay type: cell-based, human
Description: 100 μM of H2O2, the oxidant, was treated to HeLa cells prepared in Experimental Example 2 containing glutathione, the anti-oxidant, at 37° C. for 30 minutes to induce the changes of glutathione level. 20 μM of the compound prepared in Example 2 was added thereto, followed by culture at 37° C. for 20 minutes. The cells were washed with DPBS (Dulbecco's Phosphate Buffered Saline) three times to eliminate the remaining compound, followed by imaging with confocal laser scanning microscope (Fluoview 1200, Olympus, Japan). At this time, the emitting filter with the excitation wavelength of 635 nm and the band-path (BP) of 655˜755 nm was used.

C57BL/6 mouse = test: Detection of glutathione in a mouse model with N-methylmaleimide (NMM), IVIS imaging; assay type: in vivo
Description: 200 μL of HEPES (4-(2-hydroxyethyl)piperazine-1-ethanesulfonic acid) buffer (10 mM, pH=7.4) containing 20 mM of N-methylmaleimide (NMM) known as a thiol blocker was administered to each C57BL/6 mouse (7˜8 weeks old, female, Jackson Laboratory) via intravenous injection. 20 minutes later, 200 μL of HEPES (4-(2-hydroxyethyl)piperazine-1-ethanesulfonic acid) buffer (10 mM, pH=7.4) containing 50 mM of the compound prepared in Example 2 was administered to the mouse via intravenous injection. 20 minutes later, the strength of fluorescence was observed by using the epifluorescence mode of In Vivo Imaging System (IVIS) spectrum (Caliper LifeSciences, USA) equipped with the filter having the wavelengths of 675 nm and 720 nm [the strength of fluorescence was measured by Living Image Software 4.3.1 (Caliper Life Sciences, USA)].

[5] = mouse treated with NMM together with the compound

CCCN1/C(=C/C=C2\CCCC(/C=C/C3=[N+](CCC)c4ccccc4C3(C)C)=C2N2CCN(S(=O)(=O)c3cccc4c(N(C)C)cccc34)CC2)C(C)(C)c2ccccc21.[I-] [Example 2, 2-((E)-2-((E)-3-((E)-2-(3,3-dimethyl-1-propylindolin-2-ylidene)ethylidene)-2-(4-(5-(dimethylamino)naphthalene-1-ylsulfonyl)piperazine-1-yl)cyclohex-1-enyl)binyl)-3,3-dimethyl-1-propyl-3H-indolium iodide]
red fluorescence under confocal laser scanning microscope (HeLa cells [1]; HeLa cells pre-treated with NMM, 100 μM cysteine added): red fluorescence was not detected
red fluorescence under confocal laser scanning microscope (HeLa cells [1]; HeLa cells pre-treated with NMM, 100 μM glutathione added): strong red fluorescence was observed
red fluorescence under confocal laser scanning microscope (HeLa cells [1]; HeLa cells pre-treated with NMM, 100 μM homocysteine added): red fluorescence was not detected
red fluorescence under confocal laser scanning microscope (HeLa cells [1]; HeLa cells pre-treated with thiol blocker NMM 1 mM): red fluorescence was not observed
red fluorescence under confocal laser scanning microscope (HeLa cells [1]; HeLa cells, 20 minutes): strong red fluorescence was observed
fluorescence strength near 735 nm ([2]; 100 μM glutathione, HEPES pH 7.4, 10% DMSO, 25° C.): strong fluorescence strength
fluorescence strength at 736 nm ([2]; 100 μM other amino acids, HEPES pH 7.4, 10% DMSO): very weak fluorescence strength
fluorescence signal at around 736 nm over the time: selectivity among cysteine, homocysteine and glutathione ([2]; glutathione, cysteine, homocysteine, FIG. 5): selectively reacted to glutathione alone
time to maximum fluorescence signal at 736 nm [3]: ≤ 15 min
time to minimum absorption signal at 750 nm ([3]; 25° C.): ≤ 15 min
red fluorescence under confocal laser scanning microscope (HeLa cells [4]; HeLa cells pre-treated with 100 μM H2O2, 20 μM compound): red fluorescence was not observed
red fluorescence under confocal laser scanning microscope (HeLa cells [4]; HeLa cells, 20 μM compound, 20 minutes): strong red fluorescence
reaction to oxidized glutathione, glutathione disulfide (GSSG) (HeLa cells [4]; HeLa cells, H2O2): did not react
red fluorescence in liver, kidney, lung, and spleen, IVIS spectrum (C57BL/6 mouse; [5]): red fluorescence was not observed
red fluorescence of the mouse, IVIS spectrum (C57BL/6 mouse; [5]): red fluorescence was not observed
red fluorescence in liver, kidney, lung, and spleen, IVIS spectrum (C57BL/6 mouse; mouse treated with the compound alone): strong red fluorescence was observed
red fluorescence of the mouse, IVIS spectrum (C57BL/6 mouse; mouse treated with the compound alone, intravenous injection, 20 minutes): strong red fluorescence was observed
